Measured values taken from US20220313620A1, “COMPOSITION FOR PREVENTING AND TREATING TAUOPATHIES” (SERVICIO ANDALUZ DE SALUD, priority 2019, published 2022).

Tests used:
[1] = system: AMP-activated Protein Kinase (AMPK); assay: Hippocampal AMPK (western blot) after 10 days of oral drinking; type: in vivo, Wistar rats; details: oral by drinking 100 mg/Kg for 10 days, hippocampus, FIG. 10
Procedure: Animal experimental procedures were carried out in accordance with the European Communities directive 2010/63/EU and Spanish legislation (Real Decreto 53/2013). The protocol was approved by the Research and approved by Ethics Committee for Animal Experiments of the University of Malaga, Spain. In accordance with the ARRIVE guidelines, all efforts were made to minimize animal suffering and to reduce the number of animals used per experimental group. Chronic drinking experiments on Wistar rats were performed on 20 male rats. All adult rats, ageing 2 months (≈300 g of body weight), were provided by Charles River Laboratories (Barcelona, Spain). The animals were housed individually under a standard 12 h light-dark cycle in a room with temperature and humidity control. Water and rat chow pellets were provided ad libitum throughout the course of the present study. […]
Western Blot Analysis. […] Bands were quantified by densitometric analysis using ImageJ software (Rasband, WS, ImageJ, US National Institutes of Health, Bethesda, Md., USA). […] The results were expressed as the protein/α-Adaptin ratio or phosphorylated/total protein ratio and normalized to the control group (Y axis represents ‘fold mean of the control values’).
All data are expressed as mean±SEM. […]

[2] = system: Ghrelin; assay: Plasma ghrelin (ELISA) after acute oral gavage in fasted rats; type: in vivo; details: adult male Wistar rats
Procedure: (§1) The protocol was approved by the Ethics Committee for Animal Experiments of the University of Malaga.
(§2) D-Pinitol (3-0-methyl-D-chiro-inositol) was generously provided by EURONUTRA SL (https://www.euronutra.com/, Malaga, Spain), in the form of crystalline fine powder (lot: PPN-M0201). For acute treatments, D-Pinitol was dissolved in water to be administered by gavage (orally) at different concentrations (100 mg/Kg and 500 mg/Kg), drug was administered at a volume of 1 ml/kg.
(§3) After 18 hours of fasting, D-Pinitol dissolved in water was administered acutely by gavage (100 mg/kg in a first study, and 500 mg/kg in a subsequent study). After administration, the animals were sacrificed in groups at different times (being time 0 the administration of D-Pinitol). For the first study (100 mg/kg), groups of animals were sacrificed at times: 10, 20, 30, 60, 120, 240 and 360 minutes after administration; for the second study (500 mg/kg), animals were sacrificed at times: 60, 120 and 240 minutes after administration. As a control group, a group was administered only with water (by gavage).
Animals were anesthetized with sodium pentobarbital (50 mg/Kg, i.p.), blood, brain and liver samples were collected. Blood was centrifuged (2100 g for 8 min, 4° C.) and the plasma kept for further analysis. Liver and brain samples were flash-frozen in liquid N2, then stored at −80° C. until further analysis.
(§4) The plasma levels of insulin and ghrelin were determined with an enzyme-linked immunosorbent assay (ELISA) method using commercial kits: EMD Millipore Corporation (Billerica, Mass., USA) Cat. #EZRMI-13K and Cat. #EZRGRT-91K, respectively. Glucagon levels in plasma was determined with a Glucagon Enzyme Immunoassay (EIA) Kit: Cat. #RAB0202 Sigma-Aldrich (Saint Louis, Mo., USA). All serum samples were assayed in duplicate within one assay, and results were expressed in terms of the particular standard hormone.

[3] = system: Glucagon; assay: Plasma glucagon (EIA) after acute oral gavage; type: in vivo; details: oral 500 mg/kg, adult male Wistar rats, FIG. 3E
Procedure: as §1, §2
as §3, with “As a control group, a group was administered only with water (by gavage).” left out
as §4, with “All serum samples were assayed in duplicate within one assay, and results were expressed in terms of the particular standard hormone.” left out

In the case of `COC1[C@@H](O)[C@@H](O)C(O)[C@H](O)[C@H]1O` (stereo partly drawn) [DPIN, (1S,2S,4S,5R)-6-methoxycyclohexane-1,2,3,4,5-pentol], the “kinase activation and total expression of AMPK” value [1] was “No other changes”, the “circulating plasma Ghrelin concentration” value ([2]; oral 100 mg/kg in sterile water, FIG. 2A) was “increase” and the “circulating plasma Ghrelin concentration” value ([2]; oral 500 mg/kg, FIG. 3A / FIG. 4) was “increase”. The glucagon secretion [3] was “Increase”.
